Measured values: patent US20230050846A1, “TREATMENT OF HEPATIC AND CARDIOVASCULAR DISORDERS” (LIFESEARCH, priority 2019, published 2023)
Read-outs that look alike come from different tables or passages of the source. Peptide text beside a SMILES is read from it. * marks the point of attachment. Palmitoyl = CCCCCCCCCCCCCCCC(=O)*

Legend:
HUVEC cells = experiment: Endothelial nitric oxide (NO) production, DAF-FM-DA probe; assay type: cell-based, human; details: 1 μM, 10 min; abolished by IF1
Experimental: Nitric oxide (NO) was detected using a DAF-FM-DA probe (D2321, Sigma-Aldrich) which forms fluorescent benzotriazole when it reacts with NO. HUVEC cells (PromoCell #C-12203) were seeded in 96-well plates (10,000 cells per well) and cultured in endothelial cell basal medium 2 (PromoCell #C-22211) supplemented with GM2 supplement Mix (PromoCell #C-39211), until 80-90% confluence. The medium was then replaced with M-199 without serum for 4 h, and the cells were incubated for 45 min with DAF-FM-DA (5 μM) diluted in PBS. Cells were treated with increasing concentrations of the different peptides or apoA-I (10 μM) purified from human plasma or histamine (1 mM) as positive control. In another set of experiments, cells were incubated with inhibitors (IF1, 1 μM) for 10 min before treatment with peptides or apoA-I. The fluorescence was recorded for 30 min (λex=495 nm, λem=515 nm) with a Tecan Flash Multimode Reader (Thermo Fisher Scientific). Fluorescence for each condition was compared with the value obtained in untreated cells, and results were expressed as the fold change as compared with the basal condition (untreated cells).

HepG2 cells = experiment: Oleate/palmitate-induced steatosis, intracellular triglyceride content; assay type: cell-based, human; details: 1 μM, last 24 h of 48 h oleate/palmitate 0.5 mM (2:1)
Experimental: A solution containing 250 mM palmitate (P0500, Sigma-Aldrich) was first prepared in 0.1 M NaOH at 70 C for 30 min then diluted in DMEM low glucose (D5546, Sigma-Aldrich) containing 10% fatty acid-free BSA (A7030, Sigma-Aldrich) to yield a 10 mM palmitate solution and allowed to dissolve for 30 min at 37° C., filter sterilized and stored in glass vial at −20 C until use. This palmitate stock solution and ready to use oleate solution (03008, Sigma-Aldrich) were used to prepared a 0.5 mM solution at a 2:1 ratio of oleate to palmitate in complete culture medium containing DMEM low glucose, 10% fetal bovine serum, 1% Penicillin-Streptomycin and 1% fatty acid-free BSA.
HepG2 cell were grown in 12-well plates to 60-70% confluence then exposed for 48 h to culture medium (DMEM low glucose, 10% fetal bovine serum, 1% Penicillin-Streptomycin and 1% fatty acid-free BSA) alone or containing 0.5 mM oleate/palmitate mixture (2:1) to induce steatosis. For the last 24 h of the 48 h period, cells were treated with 1 μM of the peptide of formula (I) or the peptide of formula (II).
For measurement of intracellular triglyceride content, cells were washed with PBS and scraped in 5% NP-40 lysis buffer and heated for 10 min at 85° C. Triglycerides were then quantified using triglyceride commercial kit (Biolabo #87319). Values were normalized to protein concentration in cell lysates.

[1] = Pharmacokinetics in mice (plasma, LC-MS/MS); assay type: in vivo, mouse; details: 25 mg/kg; for MRT: read-out: MRT (mean residence time)
Experimental: The peptide of formula (I) and the peptide of formula (II) were analyzed in mouse EDTA plasma using a validated assay involving trypsin proteolysis and the subsequent analysis of a signature peptide (SEQ ID NO: 3) by liquid chromatography-tandem mass spectrometry (LC-MS/MS). The working solution of unlabeled peptide (SEQ ID NO: 3, 1 mM) was serially diluted in water to obtain 7 standard solutions ranging 0.05-5 μM. Plasma and standard samples (40 μL) were reduced, alkylated and trypsin-digested overnight using the ready-to-use solutions of the ProteinWorks™ eXpress kit (Waters Corporation, Milford, Mass., USA), according to the manufacturer's instructions (except trypsin incubation time optimized to 7 h). The working solution of the labeled proteotypic peptide ([SEQ ID NO: 4]-[^13C6, ^15N4]-K, 1 mM) was used as internal standard (IS) and added to the digestion buffer to a final concentration of 0.5 μM. After digestion, samples were cleaned using 30 mg Oasis HLB 1 cc Cartridges (Waters Corporation). Cartridges were conditioned, equilibrated, loaded, washed and eluted with methanol (1 mL), water (1 mL), samples (˜200 μL), 5% methanol containing 0.1% TFA (1 mL) and 60% methanol containing 0.1% TFA (1 mL), respectively. Eluates were dried under a nitrogen stream, reconstituted with 100 μL of 10% acetonitrile containing 0.1% formic acid, and 10 μL were injected into the LC-MS/MS system. LC-MS/MS analyses were performed on a Xevo® TQD mass spectrometer with an electrospray (ESI) interface and an Acquity H-Class® UPLC™ device (Waters Corporation). Proteotypic peptides were separated over 9 min on an Acquity® BEH C18 column (2.1×100 mm, 1.7 μm, Waters Corporation) held at 60° C. with a linear gradient of mobile phase B (100% acetonitrile) in mobile phase A (5% acetonitrile), each containing 0.1% formic acid, and at a flow rate of 600 μL/min. […] Proteotypic peptides were then detected by the mass spectrometer with the ESI interface operating in the positive ion mode (capillary voltage, 3 kV; desolvatation gas (N2) flow and temperature, 900 L/h and 400° C.; source temperature, 150° C.). The multiple reaction monitoring mode was applied for MS/MS detection (SEQ ID NO: 3, m/z 368.8→536.5, y6^+; [SEQ ID NO: 4]-[^13C6, ^15N4]-K, m/z 372.8→544.4, y6) with cone and collision voltages set at 20 and 14 V, respectively. Data acquisition and analyses were performed with MassLynx® and TargetLynx® software, respectively (version 4.1, Waters Corporation). Chromatographic peak area ratio between unlabeled peptide and IS constituted the detector responses. Standard solutions were used to plot calibration curves for peptide quantification. The linearity was expressed by the mean r^2 which was greater than 0.998 (linear regression, 1/x weighting, origin excluded). […] The peptide of formula (I) and the peptide of formula (II) concentrations were expressed in μM assuming 1 mole of peptide equivalent to 1 mole of the peptide of formula (I) and the peptide of formula (II), respectively. Concentrations were then converted to their standard unit (ng/mL) assuming molecular weights of 3540 Da and 3917 Da for the peptide of formula (I) and the peptide of formula (II), respectively.
Wild-type C57B/L6J male mice were purchased from Janvier Labs (Le Genest Saint Isle, France). Mice were caged in animal rooms under specific pathogen free conditions at the animal facility of Rangueil (Anexplo platform, US006, Toulouse, France) with a light/dark schedule of 12 h/12 h and were fed ad libitum with a normal chow diet (#V1535 R/M-H, Ssniff, Germany). All animal experimental procedures were conducted in accordance with institutional guidelines on animal experimentation approved by the local ethical committee of animal care and are conformed to the guidelines from Directive 2010/63/EU of the European Parliament on the protection of animals used for scientific purposes or the NIH guideline. […]

[2] = male, C57B/L6J, mouse, plasma, sc
[3] = male, C57B/L6J, mouse, plasma, sc, sc
[4] = male, C57B/L6J, mouse, plasma, sc, sc, read-out: t1/2lbd1 (distribution half-life) (converted)
[5] = male, C57B/L6J, mouse, plasma, sc, sc, read-out: t1/2lbdz (elimination half-life) (converted)

AUC ([1]; male, C57B/L6J, mouse, plasma, iv) [ng·h/mL] | MRT ([1]; male, C57B/L6J, mouse, plasma, iv, iv) [min] | half-life ([1]; male, C57B/L6J, mouse, plasma, iv, iv, read-out: t1/2lbd1 (distribution half-life) (converted)) [min] | half-life ([1]; male, C57B/L6J, mouse, plasma, iv, iv, read-out: t1/2lbdz (elimination half-life) (converted)) [min] | clearance ([1]; male, C57B/L6J, mouse, plasma, iv, read-out: Cl (total plasma clearance) (converted)) [mL/min/kg] | Vd ([1]; male, C57B/L6J, mouse, plasma, iv, read-out: Vd (volume of distribution)) [L/kg] | AUC [1, 2] [ng·h/mL] | Cmax [1, 2] [ng/mL] | Tmax [1, 2] [min] | MRT [1, 3] [min] | half-life [1, 4] [min] | half-life [1, 5] [min] | Vd (volume of distribution) ([1]; sc) [L/kg] | Cl (total plasma clearance) ([1]; sc) [mL/min/kg] | Molecule | stimulation of NO production by endothelial cells (HUVEC cells) | reduction of fatty acid-induced intracellular accumulation of triglycerides compared to PBS control (HepG2 cells) [%]
13300 | 8.4 | 3.6 | 15.6 | 31.7 | 0.7 | 6140 | 8290 | 15 | 33 | 11.4 | 12.6 | 0.5 |  | Ac-RGAGSIREAGGAFGKREQAEEERYFRAQSRE-NH2 [peptide of formula (I), CH3CO-[SEQ ID NO: 1]-NH2] | about 50% | 18
 |  |  |  |  |  | 211000 | 25600 | 240 | 349 | 125 | 752 | 1 | 0.83 | CCCCCCCCCCCCCCCC(=O)NCCCC[C@H](NC(=O)[C@H](CCC(=O)O)NC(=O)[C@H](CCCNC(=N)N)NC(=O)[C@H](CO)NC(=O)[C@H](CCC(N)=O)NC(=O)[C@H](C)NC(=O)[C@H](CCCNC(=N)N)NC(=O)[C@H](Cc1ccccc1)NC(=O)[C@H](Cc1ccc(O)cc1)NC(=O)[C@H](CCCNC(=N)N)NC(=O)[C@H](CCC(=O)O)NC(=O)[C@H](CCC(=O)O)NC(=O)[C@H](CCC(=O)O)NC(=O)[C@H](C)NC(=O)[C@H](CCC(N)=O)NC(=O)[C@H](CCC(=O)O)NC(=O)[C@H](CCCNC(=N)N)NC(=O)[C@H](CCCCN)NC(=O)CNC(=O)[C@H](Cc1ccccc1)NC(=O)[C@H](C)NC(=O)CNC(=O)CNC(=O)[C@H](C)NC(=O)[C@H](CCC(=O)O)NC(=O)[C@H](CCCNC(=N)N)NC(=O)[C@@H](NC(=O)[C@H](CO)NC(=O)CNC(=O)[C@H](C)NC(=O)CNC(=O)[C@H](CCCNC(=N)N)NC(C)=O)[C@@H](C)CC)C(N)=O [peptide of formula (II), CH3CO-[SEQ ID NO: 1]-K-[palmitoyl]-NH2] (Ac-RGAGSIREAGGAFGKREQAEEERYFRAQSREK(Palmitoyl)-NH2) | about 50% | 32
